# Measurements: patent publication US7745651B2, “Cationic lipids and methods of use” (Protiva Biotherapeutics, Inc., priority 2004, dated 2010)
# Values joined by “and” are separate entries in the source; they are usually repeats but may differ in a detail not shown here. Equal values may be shown once.
# Assays:
# [1] = TNS assay, apparent pKa of cationic lipid incorporated in SNALP; settings: TNS fluorescence, pH varied from 4.5 to 9.5
# Procedure: TNS Assay: 20 μM of SNALP lipid and 6 μM of TNS were mixed in a fluorescence cuvette in 2 mL of 20 mM sodium phosphate, 25 mM citrate, 20 mM ammonium acetate and 150 mM NaCl, at a pH that was varied from 4.5 to 9.5. Fluorescence was determined at each pH using a Varian Eclipse Spectrofluorometer (Varian Inc) with settings of λex=322 nm, λem=431 nm. Fluorescence for each system at the various pH was then normalized to the value at pH 4.5. The pKa values are the point at which 50% of the molecules present are charged. By assuming that minimum fluorescence represents zero charge, and maximum fluorescence represents 100% charge, pKa can be estimated by measuring the pH at the point exactly half way between the values of minimum and maximum charge.
# TNS is electrostatically attracted to positively charged membranes. Subsequent adsorption to the lipid membrane results in the immediate environment of the TNS becoming more lipophilic, removing the water molecules that otherwise quench TNS fluorescence. Since TNS is more readily absorbed by positively charged membranes, TNS fluorescence is an indicator of positive membrane surface charge. The surface pKa values of each SNALP formulation were determined by varying the local pH in the presence of TNS.
# [2] = Nucleic acid encapsulation in SNALP, RiboGreen fluorescence assay; format: physicochemical; settings: SNALP DSPC:Chol:PEG-C-DMA:Cationic Lipid 20:48:2:30 molar percent, siRNA; mean of 3 experiments, error is standard deviation
# Procedure: (§1) SNALP Preparation: SNALP with a lipid composition of DSPC:Chol:PEG-C-DMA:Cationic Lipid (20:48:2:30 molar percent) were prepared using the spontaneous vesicle formation by ethanol dilution method [Jeffs et al., Pharm. Res. In Press (2005)]. The sample's were diafiltered against 100 mL of PBS (20 wash volumes) using a cross flow ultrafiltration cartridge (Amersham Biosciences, Piscataway, N.J.) and sterile filtered through Acrodisc 0.2 μm Posidyne filters (Pall Corp., Ann Arbor, Mich.). The siRNA concentration of final samples was determined using the RiboGreen assay and a siRNA standard curve. Particle size and polydispersity was determined using a Malvern Instruments Zetasizer 3000HSA (Malvern, UK). Nucleic acid encapsulation was determined using a RiboGreen assay, comparing fluorescence in the presence and absence of Triton X-100. RiboGreen fluorescence was measured using a Varian Eclipse Spectrofluorometer (Varian Inc) with λex=500 nm, λem=525 nm.
# (§2) This example sets forth the physical properties of the SNALP formulations described herein. SNALP containing the various cationic lipids were prepared as described and encapsulated RNA and particle size assessed (Table 1 below). […] Polydispersity of all formulations was low, indicating a narrow distribution of particle size. RNA encapsulation in the final particles was 84-85% of the total.
# (§3) Percentage Encapsulation was determined using the RiboGreen fluorescence assay to measure the amount of encapsulated nucleic acid relative to the total nucleic acid present. Particle diameter and polydispersity was measured using a Malvern Zetasizer. Values are the mean of 3 separate experiments, the error is standard deviation.
# [3] = SNALP particle diameter and polydispersity, Malvern Zetasizer; format: physicochemical; settings: SNALP DSPC:Chol:PEG-C-DMA:Cationic Lipid 20:48:2:30 molar percent; mean of 3 experiments, error is standard deviation
# Procedure: as §1, §2, §3
# [4] = 31P-NMR of DPPS/cationic lipid MLV, bilayer-to-hexagonal phase transition temperature; format: physicochemical; settings: MLV of DPPS and cationic lipid 1:1 molar ratio, 10 mM sodium citrate pH 4
# Procedure: ^31P Nuclear Magnetic Resonance Spectroscopy: Multilamellar vesicles (MLV) were prepared comprising DPPS and cationic lipid at a molar ratio of 1:1. This was accomplished by drying the lipids from chloroform solution, transferring to 10 mm NMR tubes, and hydrating in 1.5 mL of 10 mM sodium citrate, pH 4. Free induction decays (FIDs) corresponding to 1000 scans were obtained with a 3.0 μs, 60o pulse with a 1 s interpulse delay and a spectral width of 25000 Hz. A gated two-level proton decoupling was used to ensure sufficient decoupling with minimum sample heating. An exponential multiplication corresponding to 50 Hz of line broadening was applied to the FIDs prior to Fourier transformation. The sample temperature (+/−1° C.) was regulated using a Bruker B-VT1000 variable temperature unit. Chemical shifts were referenced to 85% phosphoric acid as an external standard.
# The significance of saturation with respect to phase transition temperature was investigated using ^31P-NMR. […] By determining the temperature at which the conversion occurs, the relative ease with which the lipids form the HII phase, their ‘fusogenicity’, can be determined.
# MLV were prepared using the anionic lipid DPPS in a 1:1 molar ratio with each cationic lipid. The ^31P-NMR spectra of the MLV were measured at various temperatures. […]
SMILES,apparent (surface) pKa of cationic lipid in SNALP [1],% Encapsulation [2],Diameter (nm) [3],Polydispersity [3],bilayer-to-hexagonal (HII) phase transition temperature (Tc) [4] [°C]
"CC/C=C\C/C=C\C/C=C\CCCCCCCCOCC(CN(C)C)OCCCCCCCC/C=C\C/C=C\C/C=C\CC (stereo not drawn) [DLenDMA, 1,2-Dilinolenyloxy-N,N-dimethylaminopropane]",6.7,85 ± 1%,132 ± 7 nm,0.13 ± 0.03,–
"CCCCCCCCCCCCCCCCCC[N+](C)(C)CCCCCCCCCCCCCCCCCC [DSDMA, Distearyldimethylammonium]",~7.6,67% and 67 ± 3%,180 nm and 182 ± 11 nm,0.15 ± 0.03,> 50
